Laboratory results published in ChEMBL document CHEMBL1201862, “PubChem BioAssay data set” (2004).
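Five concentrations, 48 hours, 96-well plates. GI50 marks 50% less growth.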 The source made the active and inactive calls. Cut-off read from the data, not from the text of the source: active = GI50 up to about 1.1 µM and inactive = higher.

Key:
Assay in all cases: inhibition of tumour cell growth, NCI panel, 48 h
786-0 = system: 786-0
A498 = system: A498
A549 = system: A549
ACHN = system: ACHN
BT-549 = system: BT-549
CAKI-1 = system: CAKI-1
CCRF-CEM = system: CCRF-CEM
COLO 205 = system: COLO 205
DU-145 = system: DU-145
EKVX = system: EKVX
HCC 2998 = system: HCC 2998
HCT-116 = system: HCT-116
HCT-15 = system: HCT-15
HL-60 = system: HL-60
HOP-62 = system: HOP-62
HOP-92 = system: HOP-92
HT-29 = system: HT-29
Hs-578T = system: Hs-578T
IGROV-1 = system: IGROV-1
K562 = system: K562
KM12 = system: KM12
LOX IMVI = system: LOX IMVI
M14 = system: M14
MCF7 = system: MCF7
MDA-MB-231 = system: MDA-MB-231
MDA-MB-435 = system: MDA-MB-435
MDA-N = system: MDA-N
MOLT-4 = system: MOLT-4
Malme-3M = system: Malme-3M
NCI-H226 = system: NCI-H226
NCI-H23 = system: NCI-H23
NCI-H460 = system: NCI-H460
NCI/ADR-RES = system: NCI/ADR-RES
OVCAR-3 = system: OVCAR-3
OVCAR-4 = system: OVCAR-4
OVCAR-5 = system: OVCAR-5
OVCAR-8 = system: OVCAR-8
PC-3 = system: PC-3
RPMI-8226 = system: RPMI-8226
RXF 393 = system: RXF 393
SF-268 = system: SF-268
SF-295 = system: SF-295
SF-539 = system: SF-539
SK-MEL-28 = system: SK-MEL-28
SK-MEL-2 = system: SK-MEL-2
SK-MEL-5 = system: SK-MEL-5
SK-OV-3 = system: SK-OV-3
SN12C = system: SN12C
SNB-19 = system: SNB-19
SNB-75 = system: SNB-75
SR = system: SR
SW-620 = system: SW-620
T47D = system: T47D
TK-10 = system: TK-10
UACC-257 = system: UACC-257
UACC-62 = system: UACC-62
UO-31 = system: UO-31
U-251 = system: U-251
NCI-H522 = system: NCI-H522

Measured: GI50

O=C1OCC2=C1C(c1ccc(Cl)cc1)c1cc3c(cc1O2)OCO3 (stereo unspecified)
active: MDA-MB-435 0.778 µM | MDA-N 0.902 µM
inactive: 786-0 4.65 µM | A498 8.24 µM | A549 4.79 µM | ACHN 6.21 µM | BT-549 3.37 µM | CAKI-1 1.66 µM | CCRF-CEM 2.52 µM | COLO 205 5.55 µM | DU-145 4.15 µM | EKVX 21 µM | HCC 2998 4.1 µM | HCT-116 3 µM | HL-60 2.21 µM | HOP-62 3.4 µM | HOP-92 > 35.8 µM | HT-29 3.72 µM | Hs-578T 4.15 µM | IGROV-1 3.56 µM | K562 1.82 µM | KM12 3.45 µM | LOX IMVI 3.66 µM | M14 4.08 µM | MCF7 3.16 µM | MDA-MB-231 > 24.3 µM | MOLT-4 2.74 µM | Malme-3M 6.41 µM | NCI-H226 > 100 µM | NCI-H23 6.9 µM | NCI-H460 3.34 µM | NCI/ADR-RES 2.64 µM | OVCAR-3 3.72 µM | OVCAR-4 84.9 µM | OVCAR-5 > 23.9 µM | OVCAR-8 9.12 µM | PC-3 3.62 µM | RPMI-8226 3.46 µM | RXF 393 4.06 µM | SF-268 7.43 µM | SF-295 2.88 µM | SF-539 2.69 µM | SK-MEL-28 6.21 µM | SK-MEL-2 3.2 µM | SK-MEL-5 3.76 µM | SK-OV-3 2.83 µM | SN12C 10.5 µM | SNB-19 6.97 µM | SNB-75 2.49 µM | SR 3.03 µM | SW-620 2.88 µM | T47D 4.3 µM | TK-10 8.05 µM | UACC-257 > 21.8 µM | UACC-62 4.36 µM | UO-31 10.1 µM
2.83 µM: HCT-15

CC(=O)NC1C(OCc2ccccc2)OC(CO)C(O)C1OCC(=O)NC(C)C(=O)NC(CCC(=O)NCCCCNc1ccc([N+](=O)[O-])c2[nH]c3ccccc3c(=O)c12)C(N)=O (stereo unspecified)
inactive: 786-0 42.9 µM | A498 > 100 µM | A549 50.1 µM | ACHN 48.9 µM | BT-549 30.1 µM | CAKI-1 > 100 µM | COLO 205 > 100 µM | DU-145 > 100 µM | EKVX 88.5 µM | HCC 2998 > 100 µM | HCT-116 63.7 µM | HL-60 > 100 µM | HOP-62 > 100 µM | HOP-92 > 100 µM | HT-29 69.3 µM | Hs-578T 29.6 µM | IGROV-1 56 µM | K562 > 100 µM | KM12 90.2 µM | LOX IMVI > 100 µM | M14 71.1 µM | MCF7 > 100 µM | MDA-MB-231 > 100 µM | MDA-MB-435 > 100 µM | MDA-N > 100 µM | Malme-3M > 100 µM | NCI-H226 66.1 µM | NCI-H23 > 100 µM | NCI-H460 68.5 µM | NCI/ADR-RES > 100 µM | OVCAR-3 > 100 µM | OVCAR-4 40.5 µM | OVCAR-5 > 100 µM | OVCAR-8 > 100 µM | PC-3 > 100 µM | SF-268 38.8 µM | SF-295 34.6 µM | SF-539 49.3 µM | SK-MEL-28 > 100 µM | SK-MEL-2 > 100 µM | SK-OV-3 > 100 µM | SN12C > 100 µM | SNB-19 36.7 µM | SNB-75 43.9 µM | SR 2.87 µM | SW-620 > 100 µM | T47D > 100 µM | TK-10 92.9 µM | U-251 79.1 µM | UO-31 > 100 µM
65 µM: HCT-15

CO/N=C1\CC(NC(=O)CNC(=O)OC(C)(C)C)c2ccsc21 (stereo unspecified)
> 100 µM: HCT-15
inactive: A498 > 100 µM | A549 > 100 µM | BT-549 > 100 µM | CAKI-1 > 100 µM | CCRF-CEM > 100 µM | COLO 205 > 100 µM | DU-145 > 100 µM | EKVX > 100 µM | HCC 2998 > 100 µM | HCT-116 > 100 µM | HL-60 > 100 µM | HOP-62 > 100 µM | HOP-92 > 100 µM | HT-29 > 100 µM | Hs-578T > 100 µM | IGROV-1 > 100 µM | LOX IMVI > 100 µM | M14 > 100 µM | MCF7 > 100 µM | MDA-MB-231 > 100 µM | MDA-MB-435 90.6 µM | MDA-N 49.2 µM | MOLT-4 > 100 µM | Malme-3M > 100 µM | NCI-H226 > 100 µM | NCI-H23 > 100 µM | NCI-H460 > 100 µM | NCI/ADR-RES > 100 µM | OVCAR-3 > 100 µM | OVCAR-4 > 100 µM | OVCAR-5 > 100 µM | OVCAR-8 > 100 µM | PC-3 > 100 µM | RXF 393 > 100 µM | SF-268 > 100 µM | SF-295 > 100 µM | SF-539 > 100 µM | SK-MEL-28 > 100 µM | SK-MEL-2 > 100 µM | SK-MEL-5 81.5 µM | SK-OV-3 > 100 µM | SN12C > 100 µM | SNB-75 53.1 µM | SR > 100 µM | SW-620 > 100 µM | T47D > 100 µM | TK-10 > 100 µM | U-251 > 100 µM | UACC-257 > 100 µM | UACC-62 > 100 µM | UO-31 > 100 µM

CC(=O)OCC1OC(Sc2nc(-c3ccccc3)c(C#N)c(=O)n2C2OC(COC(C)=O)C(OC(C)=O)C(OC(C)=O)C2OC(C)=O)C(OC(C)=O)C(OC(C)=O)C1OC(C)=O (stereo unspecified)
inactive: 786-0 > 100 µM | A498 > 100 µM | A549 > 100 µM | ACHN > 100 µM | BT-549 > 100 µM | CAKI-1 > 100 µM | COLO 205 > 100 µM | DU-145 > 100 µM | EKVX > 100 µM | HCC 2998 8.11 µM | HCT-116 > 100 µM | HOP-62 > 100 µM | HOP-92 > 100 µM | HT-29 > 100 µM | Hs-578T > 100 µM | IGROV-1 > 100 µM | K562 32.2 µM | KM12 > 100 µM | LOX IMVI > 100 µM | M14 > 100 µM | MCF7 > 100 µM | MDA-MB-231 > 100 µM | MDA-MB-435 > 100 µM | MDA-N > 100 µM | MOLT-4 > 100 µM | NCI-H226 > 100 µM | NCI-H23 > 100 µM | NCI-H460 > 100 µM | NCI-H522 > 100 µM | NCI/ADR-RES > 100 µM | OVCAR-3 > 100 µM | OVCAR-5 > 100 µM | OVCAR-8 > 100 µM | PC-3 > 100 µM | RPMI-8226 > 100 µM | RXF 393 > 100 µM | SF-268 > 100 µM | SF-295 > 100 µM | SF-539 > 100 µM | SK-MEL-28 > 100 µM | SK-MEL-2 > 100 µM | SK-MEL-5 > 100 µM | SK-OV-3 > 100 µM | SN12C > 100 µM | SNB-75 > 100 µM | SR > 100 µM | SW-620 > 100 µM | T47D > 100 µM | TK-10 > 100 µM | U-251 > 100 µM | UACC-257 > 100 µM | UACC-62 > 100 µM | UO-31 > 100 µM
> 100 µM: HCT-15

COc1cccc(-c2nc(N)c(C#N)c3c2CCS(=O)(=O)c2ccc(C)cc2-3)c1
inactive: 786-0 22.6 µM | A498 30.1 µM | A549 11.6 µM | ACHN > 100 µM | BT-549 52 µM | CAKI-1 9.98 µM | CCRF-CEM 14.6 µM | COLO 205 8.05 µM | DU-145 37.6 µM | EKVX 50.6 µM | HCC 2998 17.6 µM | HCT-116 20 µM | HL-60 5.08 µM | HOP-62 30.2 µM | HOP-92 68.7 µM | HT-29 9.68 µM | Hs-578T 13.3 µM | IGROV-1 15.2 µM | K562 3.21 µM | KM12 7.85 µM | LOX IMVI 31.4 µM | M14 25.7 µM | MCF7 37.9 µM | MDA-MB-231 21.8 µM | MDA-MB-435 4.85 µM | MDA-N 3.08 µM | MOLT-4 22.9 µM | Malme-3M 18.2 µM | NCI-H226 > 51.5 µM | NCI-H23 43.1 µM | NCI-H460 10.8 µM | NCI-H522 2.68 µM | NCI/ADR-RES 15.2 µM | OVCAR-3 21 µM | OVCAR-4 > 100 µM | OVCAR-5 > 100 µM | OVCAR-8 26.1 µM | PC-3 15.8 µM | SF-268 31.6 µM | SF-295 23.6 µM | SF-539 33.6 µM | SK-MEL-28 > 78.5 µM | SK-MEL-2 38.3 µM | SK-MEL-5 5.81 µM | SK-OV-3 46.7 µM | SN12C 44.4 µM | SNB-19 > 31.3 µM | SNB-75 10.4 µM | SR 1.26 µM | SW-620 > 34.1 µM | T47D 43.2 µM | TK-10 > 68.9 µM | U-251 36.6 µM | UACC-257 34.1 µM | UACC-62 17.7 µM | UO-31 40.3 µM
7.87 µM: HCT-15
